In US10040798B2, “Pyrrolopyridazine inhibitors of IRAK4 activity” (MERCK SHARP & DOHME CORP., priority 2015, dated 2018):
pIC50: −log10 of the molar value. Where a name gives a salt, the structure may show the parent alone.

Molecular target: IRAK4 (Homo sapiens (Human), UniProt Q9NWZ3)
Assay: IRAK4 Kinase Assay (IMAP fluorescence polarization)
Assay type: biochemical
Details: 0.5 nM GST tagged IRAK4, 100 μM ATP, 30 minutes at 25° C., IMAP FP
Method: The kinase activity of IRAK4 is determined by its ability to catalyze the phosphorylation of a fluorescent polypeptide substrate. The extent of phosphorylation is measured using the IMAP technology (Molecular Devices) where the phosphorylated fluorescent substrate binds to the large M (III)-based nanoparticles which reduces the rotational speed of the substrate and thus increases its fluorescent polarization (FP).
20 μL reaction mixture contains 10 mM TriHCl, pH 7.2, 0.5 nM GST tagged IRAK4 (SignalChem), 100 nM fluorescent peptide substrate (RP7030, Molecular Devices), 100 μM ATP, 1 mM DDT, 1 mM MgCl2, and 0.01% Tween 20. The reaction is initiated by the addition of ATP. After incubation for 30 minutes at 25° C., 60 μL of Progressive IMAP Reagent (Molecular Devices) is added to stop the reaction. Change in RP7030's FP is determined by a FP reader (Analyst HT, LJL BioSystems).

IRAK4, sequence (Q9NWZ3 whole entry): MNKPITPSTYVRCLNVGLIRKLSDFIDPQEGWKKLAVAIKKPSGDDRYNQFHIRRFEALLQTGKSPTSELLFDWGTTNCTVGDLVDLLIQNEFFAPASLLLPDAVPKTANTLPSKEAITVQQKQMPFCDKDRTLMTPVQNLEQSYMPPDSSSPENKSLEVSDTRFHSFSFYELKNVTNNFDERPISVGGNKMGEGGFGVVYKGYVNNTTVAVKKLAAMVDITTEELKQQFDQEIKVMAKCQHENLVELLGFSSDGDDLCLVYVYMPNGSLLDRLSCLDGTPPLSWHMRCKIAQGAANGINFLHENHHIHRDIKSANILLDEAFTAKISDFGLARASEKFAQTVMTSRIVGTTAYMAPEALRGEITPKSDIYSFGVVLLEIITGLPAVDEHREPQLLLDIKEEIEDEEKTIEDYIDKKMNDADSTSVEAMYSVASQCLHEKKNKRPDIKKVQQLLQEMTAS

Row | pIC50 | Compound
1 | 6.45 | N#Cc1sccc1NC(=O)c1ccc2ccc(N3C[C@H]4CC[C@@H]3CN4)nn12 (single isomer, unassigned) [Example 81, N-(2-cyanothiophen-3-yl)-2-[(1S,4S)- or (1R,4R)-2,5-diazabicyclo[2.2.2]oct-2-yl]pyrrolo[1,2-b]pyridazine-7-carboxamide formate]
2 | 6.73 | O=C(Nc1cscc1Cl)c1ccc2ccc(N3C[C@@H]4CC[C@H]3CN4)nn12 (single isomer, unassigned) [Example 83, N-(4-chlorothiophen-3-yl)-2-[(1S,4S)- or (1R,4R)-2,5-diazabicyclo[2.2.2]oct-2-yl]pyrrolo[1,2-b]pyridazine-7-carboxamide trifluoroacetate]
3 | 6.90 | O=C(Nc1cscc1Cl)c1ccc2ccc(N3C[C@H]4CC[C@@H]3CN4)nn12 (single isomer, unassigned) [Example 84, N-(4-chlorothiophen-3-yl)-2-[(1S,4S)- or (1R,4R)-2,5-diazabicyclo[2.2.2]oct-2-yl]pyrrolo[1,2-b]pyridazine-7-carboxamide trifluoroacetate]
4 | 7.05 | N#Cc1ccccc1NC(=O)c1ccc2ccc(N[C@@H]3CCCCNC3)nn12 (single isomer, unassigned) [Example 108, 2-[(3R)- or (3S)-azepan-3-ylamino]-N-(2-cyanophenyl)pyrrolo [1,2-b]pyridazine-7-carboxamide trifluoroacetate]
5 | 8.15 | N#Cc1ccccc1NC(=O)c1ccc2ccc(N[C@H]3CCCCNC3)nn12 (single isomer, unassigned) [Example 109, 2-[(3R)- or (3S)-azepan-3-ylamino]-N-(2-cyanophenyl)pyrrolo [1,2-b]pyridazine-7-carboxamide trifluoroacetate]
6 | 5.92 | O=C(Nc1ccsc1C(F)(F)F)c1ccc2ccc(N3C[C@@H]4CC[C@H]3CN4)nn12 (single isomer, unassigned) [Example 113, 2-[(1S,4S)- or (1R,4R)-2,5-diazabicyclo[2.2.2]oct-2-yl]-N-[2-(trifluoromethyl)thiophen-3-yl]pyrrolo[1,2-b]pyridazine-7-carboxamide trifluoroacetate]
7 | 5.75 | O=C(Nc1ccsc1C(F)(F)F)c1ccc2ccc(N3C[C@H]4CC[C@@H]3CN4)nn12 (single isomer, unassigned) [Example 114, 2-[(1S,4S)- or (1R,4R)-2,5-diazabicyclo[2.2.2]oct-2-yl]-N-[2-(trifluoromethyl)thiophen-3-yl]pyrrolo[1,2-b]pyridazine-7-carboxamide trifluoroacetate]
8 | 8.30 | Cn1cc(NC(=O)c2ccc3ccc(N4C[C@@H]5CNC[C@H]4C5)nn23)c(C(F)F)n1 (single isomer, unassigned) [Example 125, 2-[(1S,5R)- or (1R,5S)-3,6-diazabicyclo[3.2.1]oct-6-yl]-N-[3-(difluoromethyl)-1-methyl-1H-pyrazol-4-yl]pyrrolo[1,2-b]pyridazine-7-carboxamide]
9 | 7.85 | Cn1cc(NC(=O)c2ccc3ccc(N4C[C@H]5CNC[C@@H]4C5)nn23)c(C(F)F)n1 (single isomer, unassigned) [Example 126, 2-[(1S,5R)- or (1R,5S)-3,6-diazabicyclo[3.2.1]oct-6-yl]-N-[3-(difluoromethyl)-1-methyl-1H-pyrazol-4-yl]pyrrolo[1,2-b]pyridazine-7-carboxamide]
10 | 8.30 | Cn1cc(NC(=O)c2ccc3ccc(N[C@@H]4CCCC[C@@H]4N)nn23)c(C(F)(F)F)n1 [Example 1, 2-(((1R,2S)-2-Aminocyclohexyl)amino)-N-(1-methyl-3-(trifluoromethyl)-1H-pyrazol-4-yl)pyrrolo[1,2-b]pyridazine-7-carboxamide]
11 | 6.91 | Cn1cc(NC(=O)c2ccc3ccc(N[C@@H]4CCCC[C@@H]4O)nn23)c(C(F)(F)F)n1 [Example 5, 2-{[(1R,2S)-2-hydroxycyclo-hexyl]amino}-N-[1-methyl-3-(trifluoromethyl)-1H-pyrazol-4-yl]pyrrolo[1,2-b]pyridazine-7-carboxamide trifluoroacetate]
12 | 9.00 | Cn1cc(NC(=O)c2ccc3ccc(N[C@@H]4CCCNC4)nn23)c(C(F)(F)F)n1 [Example 6, N-[1-methyl-3-(trifluoromethyl)-1H-pyrazol-4-yl]-2-[(3R)-piperidin-3-ylamino]pyrrolo[1,2-b]pyridazine-7-carboxamide trifluoroacetate]
13 | 6.72 | Cn1cc(NC(=O)c2ccc3ccc(N[C@@H]4CCCC(F)(F)[C@@H]4N)nn23)c(C(F)(F)F)n1 [Example 7, 2-{[(1R,2R)-2-amino-3,3-difluorocyclo-hexyl]amino}-N-[1-methyl-3-(trifluoromethyl)-1H-pyrazol-4-yl]pyrrolo[1,2-b]pyridazine-7-carboxamide trifluoroacetate]
14 | 7.72 | Cn1cc(NC(=O)c2ccc3ccc(N4CC5CCC4CN5)nn23)c(C(F)(F)F)n1 (stereo not shown) [Example 8, 2-(2,5-diazabicyclo[2.2.2]oct-2-yl)-N-[1-methyl-3-(trifluoromethyl)-1H-pyrazol-4-yl]pyrrolo[1,2-b]pyridazine-7-carboxamide]
15 | 7.57 | Cn1cc(NC(=O)c2ccc3ccc(N4CCNCC5(CC5)C4)nn23)c(C(F)(F)F)n1 [Example 9, 2-(5,8-diazaspiro[2.6]non-5-yl)-N-[1-methyl-3-(trifluoromethyl)-1H-pyrazol-4-yl]pyrrolo[1,2-b]pyridazine-7-carboxamide trifluoroacetate]
16 | 7.48 | Cn1cc(NC(=O)c2ccc3ccc(N4CCCNCC4)nn23)c(C(F)(F)F)n1 [Example 10, 2-(1,4-diazepan-1-yl)-N-[1-methyl-3-(trifluoromethyl)-1H-pyrazol-4-yl]pyrrolo[1,2-b]pyridazine-7-carboxamide trifluoroacetate]
17 | 7.57 | Cn1cc(NC(=O)c2ccc3ccc(N4CC5CCC4CN5)nn23)c(C(F)(F)F)n1 (stereo not shown) [Example 11, 2-(2,5-diazabicyclo[2.2.2]oct-2-yl)-N-[1-methyl-3-(trifluoromethyl)-1H-pyrazol-4-yl]pyrrolo[1,2-b]pyridazine-7-carboxamide]
18 | 9.30 | Cn1cc(NC(=O)c2ccc3ccc(N4CCC[C@@H](N)C4)nn23)c(C(F)(F)F)n1 [Example 12, 2-[(3R)-3-aminopiperidin-1-yl]-N-[1-methyl-3-(trifluoromethyl)-1H-pyrazol-4-yl]pyrrolo[1,2-b]pyridazine-7-carboxamide trifluoroacetate]
19 | 9.30 | Cn1cc(NC(=O)c2ccc3ccc(N4CCC[C@@H](N)C4)nn23)c(C(F)F)n1 [Example 13, 2-[(3R)-3-aminopiperidin-1-yl]-N-[3-(difluoromethyl)-1-methyl-1H-pyrazol-4-yl]pyrrolo[1,2-b]pyridazine-7-carboxamide trifluoroacetate]
20 | 8.70 | Cn1cc(NC(=O)c2ccc3ccc(N4CCNCC4)nn23)c(C(F)F)n1 [Example 14, N-[3-(difluoromethyl)-1-methyl-1H-pyrazol-4-yl]-2-piperazin-1-ylpyrrolo[1,2-b]pyridazine-7-carboxamide trifluoroacetate]
21 | 8.70 | Cn1cc(NC(=O)c2ccc3ccc(N4CCCNCC4)nn23)c(C(F)F)n1 [Example 15, 2-(1,4-diazepan-1-yl)-N-[3-(difluoromethyl)-1-methyl-1H-pyrazol-4-yl]pyrrolo[1,2-b]pyridazine-7-carboxamide trifluoroacetate]
22 | 9.05 | Cn1cc(NC(=O)c2ccc3ccc(N[C@@H]4CCCNC4)nn23)c(C(F)F)n1 [Example 16, N-[3-(difluoromethyl)-1-methyl-1H-pyrazol-4-yl]-2-[(3R)-piperidin-3-ylamino]pyrrolo[1,2-b]pyridazine-7-carboxamide trifluoroacetate]
23 | 8.40 | Cn1cc(NC(=O)c2ccc3ccc(N4CC5CCC4CN5)nn23)c(C(F)F)n1 (stereo not shown) [Example 17, 2-(2,5-diazabicyclo[2.2.2]oct-2-yl)-N-[3-(difluoromethyl)-1-methyl-1H-pyrazol-4-yl]pyrrolo[1,2-b]pyridazine-7-carboxamide trifluoroacetate]
24 | 8.70 | Cn1cc(NC(=O)c2ccc3ccc(N4CCNCC5(CC5)C4)nn23)c(C(F)F)n1 [Example 18, 2-(5,8-diazaspiro[2.6]non-5-yl)-N-[3-(difluoromethyl)-1-methyl-1H-pyrazol-4-yl]pyrrolo[1,2-b]pyridazine-7-carboxamide trifluoroacetate]
25 | 9.00 | Cn1cc(NC(=O)c2ccc3ccc(N[C@@H]4CCCC[C@@H]4N)nn23)c(C(F)F)n1 [Example 19, 2-{[(1R,2S)-2-aminocyclo-hexyl]amino}-N-[3-(difluoromethyl)-1-methyl-1H-pyrazol-4-yl]pyrrolo[1,2-b]pyridazine-7-carboxamide trifluoroacetate]
26 | 7.96 | Cn1cc(NC(=O)c2ccc3ccc(N[C@@H]4CCCC[C@@H]4O)nn23)c(C(F)F)n1 [Example 20, N-[3-(difluoromethyl)-1-methyl-1H-pyrazol-4-yl]-2-{[(1R,2S)-2-hydroxycyclohexyl]amino}pyrrolo[1,2-b]pyridazine-7-carboxamide trifluoroacetate]
27 | 7.49 | Cn1cc(NC(=O)c2ccc3ccc(N4CCCNCC4)nn23)c(Br)n1 [Example 21, N-(3-bromo-1-methyl-1H-pyrazol-4-yl)-2-(1,4-diazepan-1-yl)pyrrolo[1,2-b]pyridazine-7-carboxamide trifluoroacetate]
28 | 8.70 | Cn1cc(NC(=O)c2ccc3ccc(N[C@@H]4CCCC[C@@H]4N)nn23)c(Br)n1 [Example 22, 2-{[(1R,2S)-2-amino-cyclohexyl]amino}-N-(3-bromo-1-methyl-1H-pyrazol-4-yl)pyrrolo[1,2-b]pyridazine-7-carboxamide trifluoroacetate]
